Laboratory results taken from patent publication US12649733B2, “3,6-diamino-pyridazin-3-yl derivatives, pharmaceutical compositions containing them and their uses as pro-apoptotic agents” (LES LABORATOIRES SERVIER, priority 2019, dated 2026).
pIC50, pKi: −log10 of the molar value.

Key:
[1] = biological target: BCLXL (Homo sapiens, UniProt Q07817, V10N/V9A); experiment: Fluorescence polarisation assay (PUMA-based probe displacement); format: binding; also: 20 nM protein, 10 nM fluorescent probe
Description: Fluorescence polarization measures the rotation of a fluorescing species in solution, the larger the molecule the more polarized the fluorescence emission.
[[…]] (GST UniProtKB® primary accession number P08515 and BCLXL UniProtKB® primary accession number Q07817-1),
resulting in an increase in anisotropy. If a compound is added which competitively binds to the same site as the probe, thereby releasing it, anisotropy decreases due to the increased amount of free probe.
An 11-point serial dilution of each compound was prepared in DMSO, the final buffer conditions were 10 mM 4-(2-hydroxyethyl)-1-piperazineethanesulfonic acid [HEPES], 150 mM NaCl, 0.05% Tween 20, pH 7.4 and 5% DMSO. The final protein concentration in the assay was 20 nM with the fluorescent probe present at 10 nM. The experiments were incubated for 2 hours at 23° C. before fluorescence polarization was measured on a Biotek SynergyNeo plate reader (Excitation 485 nm, emission 525 nm, parallel and perpendicular reads). […] The KI values were determined from the IC50 values according to Cer et al, Nucleic Acids Res, 2009, Jul. 1: 37(WebServer issue): W441-W445.

[2] = tested on: H146 cells; experiment: H146 cell viability, MTT assay; format: cell-based; details: Homo sapiens, NCI-H146, 48 h, 48 h exposure
Description: (§1) MTT colorimetric assay is based on the mitochondrial reduction of tetrazolium salt by living cells. The viable cell number is proportional to the production of formazan salts, which can be read spectrophotometrically at 540 nm.
(§2) MOLT-4 and H146 cells were purchased from ATCC and cultivated in RPMI 1640 supplemented with 10% heat inactivated fetal bovine serum, penicillin (100 IU/ml), streptomycin (100 μg/ml) and L-glutamine (2 mM). Cells were cultured at 37° C. in a humidified atmosphere containing 5% CO2. Cells were seeded in 96 microwell plates (150 μL per well) and exposed to the compounds for 48 h (3.16 fold serially diluted; 9 concentrations each, triplicates). At the end of incubation time, 15 μL of MTT solution (5 mg/ml) were added per well and the cells were incubated for another 4 h. Then, 100 μL of 10% Sodium Dodecyl Sulfate (SDS)/HCl 10 mM were added per well and the plate was incubated overnight, before measurement of optical density at 540 nm. IC50s were calculated using standard four-parametric curve fitting.

[3] = tested on: MOLT-4 cells; experiment: MOLT-4 cell viability, MTT assay; format: cell-based; details: Homo sapiens, MOLT-4, 48 h, 48 h exposure
Description: as §1, §2

Chain of BCLXL (Q07817 with tags, fused parts or gaps V9A/V10N): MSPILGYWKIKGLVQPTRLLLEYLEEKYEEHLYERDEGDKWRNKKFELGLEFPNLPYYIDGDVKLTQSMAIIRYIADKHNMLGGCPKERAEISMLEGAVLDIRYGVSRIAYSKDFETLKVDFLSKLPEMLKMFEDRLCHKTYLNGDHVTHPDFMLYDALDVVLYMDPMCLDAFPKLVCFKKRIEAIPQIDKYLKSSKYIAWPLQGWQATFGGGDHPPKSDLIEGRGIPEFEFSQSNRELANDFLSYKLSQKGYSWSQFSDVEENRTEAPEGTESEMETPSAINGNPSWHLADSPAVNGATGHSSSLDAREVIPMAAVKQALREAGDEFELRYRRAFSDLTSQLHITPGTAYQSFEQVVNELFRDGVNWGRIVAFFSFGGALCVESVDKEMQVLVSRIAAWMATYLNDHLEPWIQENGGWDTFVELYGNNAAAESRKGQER

pKi [1] | pIC50 [2] | pIC50 [3] | Structure (SMILES)
6.59 | ≤ 5.13 | 4.88 | Cc1c(-c2sc(Nc3ccc(Nc4nc5ccccc5s4)nn3)nc2C(=O)O)cnn1CC12CC3CC(CC(C3)C1)C2 [Example 32, 5-{1-[(Adamantan-1-yl)methyl]-5-methyl-1H-pyrazol-4-yl}-2-({6-[(1,3-benzothiazol-2-yl)amino]pyridazin-3-yl}amino)-1,3-thiazole-4-carboxylic acid]
7.19 | 5.36 | 5.20 | Cc1c(Nc2nc(C(=O)O)c(-c3cnn(CC45CC6CC(CC(C6)C4)C5)c3C)s2)nnc(Nc2nc3ccccc3s2)c1C [Example 33, 5-{1-[(Adamantan-1-yl)methyl]-5-methyl-1H-pyrazol-4-yl}-2-({6-[(1,3-benzothiazol-2-yl)amino]-4,5-dimethylpyridazin-3-yl}amino)-1,3-thiazole-4-carboxylic acid]
7.23 | 5.63 | 5.43 | COCCCC1(Cn2ncc(-c3sc(Nc4nnc(Nc5nc6ccccc6s5)c(C)c4C)nc3C(=O)O)c2C)CCCCCCC1 [Example 35, 2-({6-[(1,3-Benzothiazol-2-yl)amino]-4,5-dimethylpyridazin-3-yl}amino)-5-(1-{[1-(3-methoxypropyl)cyclooctyl]methyl}-5-methyl-1H-pyrazol-4-yl)-1,3-thiazole-4-carboxylic acid]
7.55 | 5.70 | 5.46 | COCCCC1(Cn2ncc(-c3sc(Nc4nnc(Nc5nc6ccccc6s5)c(C)c4C)nc3C(=O)O)c2C)CCCCC1 [Example 36, 2-({6-[(1,3-benzothiazol-2-yl)amino]-4,5-dimethylpyridazin-3-yl}amino)-5-(1-{[1-(3-methoxypropyl)cyclohexyl]methyl}-5-methyl-1H-pyrazol-4-yl)-1,3-thiazole-4-carboxylic acid]
3.60 | < 4.82 | < 4.82 | CN(c1ccc(Nc2nc3ccccc3s2)nn1)c1cccc(C(=O)O)n1 [Example 38, 6-({6-[(1,3-Benzothiazol-2-yl)amino]pyridazin-3-yl}(methyl)amino)pyridine-2-carboxylic acid]
7.70 | 5.42 | 5.83 | Cc1cc(N(C)c2nc(C(=O)O)c(-c3cnn(CC45CC6CC(CC(C6)C4)C5)c3C)s2)nnc1Nc1nc2ccccc2s1 [Example 40, 5-{1-[(Adamantan-1-yl)methyl]-5-methyl-1H-pyrazol-4-yl}-2-({6-[(1,3-benzothiazol-2-yl)amino]-5-methylpyridazin-3-yl}(methyl)amino)-1,3-thiazole-4-carboxylic acid]
8.33 | 5.69 | 5.99 | COCCCC1(Cn2ncc(-c3sc(N(C)c4cc(C)c(Nc5nc6ccccc6s5)nn4)nc3C(=O)O)c2C)CCCCC1 [Example 42, 2-({6-[(1,3-Benzothiazol-2-yl)amino]-5-methylpyridazin-3-yl}(methyl)amino)-5-(1-{[1-(3-methoxypropyl)cyclohexyl]methyl}-5-methyl-1H-pyrazol-4-yl)-1,3-thiazole-4-carboxylic acid]
7.05 | 4.89 | 5.08 | COCCCN(c1cc(C)c(Nc2nc3ccccc3s2)nn1)c1nc(C(=O)O)c(-c2cnn(CC34CC5CC(CC(C5)C3)C4)c2C)s1 [Example 52, 5-{1-[(Adamantan-1-yl)methyl]-5-methyl-1H-pyrazol-4-yl}-2-({6-[(1,3-benzothiazol-2-yl)amino]-5-methylpyridazin-3-yl}(3-methoxypropyl)amino)-1,3-thiazole-4-carboxylic acid]
7.82 | 5.78 | 6.15 | Cc1c(-c2sc(N(C)c3cc(C4CC4)c(Nc4nc5ccccc5s4)nn3)nc2C(=O)O)cnn1CC12CC3CC(CC(C3)C1)C2 [Example 53, 5-{1-[(Adamantan-1-yl)methyl]-5-methyl-1H-pyrazol-4-yl}-2-({6-[(1,3-benzothiazol-2-yl)amino]-5-cyclopropylpyridazin-3-yl}(methyl)amino)-1,3-thiazole-4-carboxylic acid]
< 5.00 | < 4.82 | < 4.82 | Cc1cc(N(C)c2ccc(C(=O)O)s2)nnc1Nc1nc2ccccc2s1 [Example 56, 5-({6-[(1,3-Benzothiazol-2-yl)amino]-5-methylpyridazin-3-yl}(methyl)amino)thiophene-2-carboxylic acid]
> 9.00 | 6.23 | 6.72 | Cc1cc(N(C)c2nc(C(=O)O)c(CCCOC3CCCCC3)s2)nnc1Nc1nc2ccccc2s1 [Example 61, 2-({6-[(1,3-Benzothiazol-2-yl)amino]-5-methylpyridazin-3-yl}(methyl)amino)-5-[3-(cyclohexyloxy)propyl]-1,3-thiazole-4-carboxylic acid]

Continued, compound first:

Structure (SMILES) | pKi [1] | pIC50 [2] | pIC50 [3]
CC(C)c1cc(N(C)c2nc(C(=O)O)cs2)nnc1Nc1nc2ccccc2s1 [Example 34, 2-({6-[(1,3-Benzothiazol-2-yl)amino]-5-(propan-2-yl)pyridazin-3-yl}(methyl)amino)-1,3-thiazole-4-carboxylic acid] | 8.05 | 5.27 | 5.41
CCN(c1cc(C)c(Nc2nc3ccccc3s2)nn1)c1nc(C(=O)O)cs1 [Example 37, 2-({6-[(1,3-Benzothiazol-2-yl)amino]-5-methylpyridazin-3-yl}(ethyl)amino)-1,3-thiazole-4-carboxylic acid] | 7.82 | 4.96 | 5.13
COCCN(c1cc(C)c(Nc2nc3ccccc3s2)nn1)c1nc(C(=O)O)cs1 [Example 39, 2-({6-[(1,3-Benzothiazol-2-yl)amino]-5-methylpyridazin-3-yl}(2-methoxyethyl)amino)-1,3-thiazole-4-carboxylic acid] | 7.27 | < 4.82 | < 4.82
Cc1cc(N(CCN2CCOCC2)c2nc(C(=O)O)cs2)nnc1Nc1nc2ccccc2s1 [Example 41, 2-({6-[(1,3-Benzothiazol-2-yl)amino]-5-methylpyridazin-3-yl}[2-(morpholin-4-yl)ethyl]amino)-1,3-thiazole-4-carboxylic acid] | 7.43 | ≤ 5.01 | < 4.89
Cc1cc(N(CCCN2CCOCC2)c2nc(C(=O)O)cs2)nnc1Nc1nc2ccccc2s1 [Example 44, 2-({6-[(1,3-Benzothiazol-2-yl)amino]-5-methylpyridazin-3-yl}[3-(morpholin-4-yl)propyl]amino)-1,3-thiazole-4-carboxylic acid] | 7.16 | < 4.82 | < 4.82
CCCN(c1cc(C)c(Nc2nc3ccccc3s2)nn1)c1nc(C(=O)O)cs1 [Example 45, 2-({6-[(1,3-Benzothiazol-2-yl)amino]-5-methylpyridazin-3-yl}(propyl)amino)-1,3-thiazole-4-carboxylic acid] | 7.85 | ≤ 4.93 | 4.93
CCN(CC)CCCN(c1cc(C)c(Nc2nc3ccccc3s2)nn1)c1nc(C(=O)O)cs1 [Example 46, 2-({6-[(1,3-Benzothiazol-2-yl)amino]-5-methylpyridazin-3-yl}[3-(diethylamino)propyl]amino)-1,3-thiazole-4-carboxylic acid] | 6.72 | < 4.82 | < 4.82
COCCCN(c1cc(C)c(Nc2nc3ccccc3s2)nn1)c1nc(C(=O)O)cs1 [Example 47, 2-({6-[(1,3-Benzothiazol-2-yl)amino]-5-methylpyridazin-3-yl}(3-methoxypropyl)amino)-1,3-thiazole-4-carboxylic acid] | 7.64 | ≤ 5.02 | < 4.82
Cc1cc(N(CCCO)c2nc(C(=O)O)cs2)nnc1Nc1nc2ccccc2s1 [Example 49, 2-({6-[(1,3-Benzothiazol-2-yl)amino]-5-methylpyridazin-3-yl}(3-hydroxypropyl)amino)-1,3-thiazole-4-carboxylic acid] | 8.09 | < 4.82 | < 4.82
Cc1c(Nc2nc(C(=O)O)cs2)nnc(Nc2nc3cc(F)c(F)cc3s2)c1C [Example 57, 2-[[6-[(5,6-Difluoro-1,3-benzothiazol-2-yl)amino]-4,5-dimethyl-pyridazin-3-yl]amino]thiazole-4-carboxylic acid] | 6.46 | 4.87 | < 4.82
Cc1c(Nc2nc(C(=O)O)cs2)nnc(Nc2nc3cc(F)ccc3s2)c1C [Example 58, 2-[[6-[(5-Fluoro-1,3-benzothiazol-2-yl)amino]-4,5-dimethyl-pyridazin-3-yl]amino]thiazole-4-carboxylic acid] | 7.31 | < 4.82 | < 4.82
